Experimental data as given in PMC8424217 (The Journal of Biological Chemistry, 2021).
Peptide text beside a SMILES is read from it. * marks the point of attachment. Palmitoyl = CCCCCCCCCCCCCCCC(=O)*

Assays:
CHO-K1 cells = test: ERK1/2 phosphorylation, western blot, CHO-K1 cells not expressing hUT; assay type: cell-based; conditions: CHO-K1, 5 min; hUII 10^−7 M, pepducins 10^−5 M; n = 3
hUT [1] = molecular target: T1, hUT (Homo sapiens, UniProt Q9UKP6); test: EGFR transactivation (EGFR-GFP internalization, confocal microscopy), HEK 293-hUT cells; assay type: cell-based; parameters: expressed in transfected cells; conditions: 30 min; for EGFR internalization: 10^−6 M; for EGFR transactivation after YM254890 (Gq inhibitor): YM254890 100 nM 1 h pretreatment, peptide 10^−6 M
T1 sequence (Q9UKP6 1-389): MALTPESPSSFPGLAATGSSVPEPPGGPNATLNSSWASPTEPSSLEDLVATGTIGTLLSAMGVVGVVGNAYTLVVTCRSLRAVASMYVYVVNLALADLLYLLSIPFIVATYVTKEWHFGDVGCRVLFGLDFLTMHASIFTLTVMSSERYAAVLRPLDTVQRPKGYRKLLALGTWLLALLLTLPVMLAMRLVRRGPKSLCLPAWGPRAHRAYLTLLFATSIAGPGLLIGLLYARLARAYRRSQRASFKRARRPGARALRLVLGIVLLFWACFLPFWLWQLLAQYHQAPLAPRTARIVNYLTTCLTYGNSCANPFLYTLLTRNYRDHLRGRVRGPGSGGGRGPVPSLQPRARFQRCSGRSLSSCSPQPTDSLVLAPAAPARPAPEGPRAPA
Description: EGFR internalization, following hUT stimulation with various ligands for 30 min, was visualized using confocal microscopy. The images shown are from representative experiments repeated at least three times.
HEK 293 and HEK 293-hUT cells, transiently transfected with cDNA encoding fluorescently labeled EGFR (EGFR-GFP) (2 μg), were plated onto 35-mm glass-bottomed culture dishes (MatTek Corp). Following stimulation, cells were washed once with PBS and fixed in 4% paraformaldehyde for 15 min. To study the involvement of Gq in EGFR internalization, cells were treated with YM254890 (100 nM) for 1h prior peptide treatments. […] EGFR-GFP internalization was visualized using a combination of excitation (488 nm) and emission filters (499 and 520 nm).

hUT [2] = molecular target: T1, hUT; test: Gq activation, BRET biosensor, HEK 293-hUT cells; assay type: cell-based; parameters: expressed in transfected cells; conditions: mean ± SEM; for EC50: n = 3–5, read-out: Gq activation pEC50 (converted)
Description: (§1) Figure 6 Signaling signature of hUT-pepducins following hUT receptor activation. […] Each curve represents mean ± SEM of at least three independent concentration-response experiments performed in triplicate.
(§2) HEK 293-hUT cells were grown in DMEM culture media supplemented with 10% foetal bovine serum, HEPES, sodium pyruvate, and G418 (200 μg mL^−1). Passages were performed when cells reached 80% of confluency. Cells were initially plated in 96-well plates at a density of 10,000 cells/well. The following day, the medium is replaced with DMEM culture media supplemented with 2.5% foetal bovine serum (FBS), and 12 h later, cells were transiently transfected with 25 ng/well of a Gq-polycistronic, 25 ng/well of a G12-polycistronic BRET sensor, 25 ng/well of a G13-polycistronic BRET sensor, 2.5 ng/well pIRESB RLucII-ERK-NLS-GFP BRET sensor, 2.5 ng β-arrestin 1-polycistronic BRET sensor, or 2.5 ng β-arrestin 2-polycistronic BRET sensor using Lipofectamine2000 at a ratio of 3:1 (Lipofectamine/plasmid DNA) in serum-free Opti-MEM ([44], [81]). Sixteen hours posttransfection, medium was replaced with DMEM supplemented with 10% FBS, HEPES, sodium pyruvate and G418 (200 μg mL^−1) and cell growth was resumed for another 16 h. Cells were washed with 150 μl PBS solution supplemented with 0.1% of glucose and then incubated with 80 μl of this solution for 2 h. Then, to evaluate Gq and G12 activation, 10 μl of a 1/20 dilution (diluted before use) of coelenterazine 400A (stock at 1 mM in ethanol) in Kreb's buffer and 10 μl of the 10× appropriate concentration of peptide were added, and the luminescence was evaluated with an Infinite M1000 PRO. […] Readings were performed after 5 min using an Infinite M1000 PRO. Filters were set at 410 nm and 515 nm for detecting the Renilla luciferase II (RlucII, donor) and green fluorescent protein 10 (GFP10, acceptor) light emission, respectively. BRET ratio was determined by calculating the ratio of the light emitted by GFP10 over the light emitted by the RlucII.

hUT [3] = molecular target: T1, hUT; test: G13 activation, BRET biosensor, HEK 293-hUT cells; assay type: cell-based; parameters: expressed in transfected cells; conditions: for EC50: HEK 293-hUT, BRET, mean ± SEM, n = 3–5, read-out: G13 activation pEC50 (converted)
Description: as §1, §2

rat thoracic aorta rings = molecular target: T2, rat thoracic aorta rings (Rattus norvegicus, UniProt P49684); test: Modulation of hUII-mediated rat aortic ring contraction; conditions: for Emax: read-out: hUII Emax after pepducin pretreatment
T2 sequence (P49684 1-386): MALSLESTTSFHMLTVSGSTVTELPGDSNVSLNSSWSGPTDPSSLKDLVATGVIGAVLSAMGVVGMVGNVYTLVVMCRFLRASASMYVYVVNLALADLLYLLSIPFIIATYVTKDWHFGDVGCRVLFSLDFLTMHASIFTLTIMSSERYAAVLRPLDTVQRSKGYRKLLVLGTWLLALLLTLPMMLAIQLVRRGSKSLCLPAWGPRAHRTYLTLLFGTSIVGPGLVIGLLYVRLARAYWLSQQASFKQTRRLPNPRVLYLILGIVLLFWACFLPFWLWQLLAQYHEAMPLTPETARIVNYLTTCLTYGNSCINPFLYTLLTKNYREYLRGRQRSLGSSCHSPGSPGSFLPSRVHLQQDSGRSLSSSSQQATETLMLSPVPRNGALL
Description: Each replicate (n) was conducted on tissue obtained from at least three different animals. Data represent mean ± SEM.
Adult male Sprague-Dawley rats (Charles-River) weighing 250–300 g were housed in cages under controlled illumination (12:12 h light–dark cycle), humidity, and temperature (21–23 °C) and had free access to tap water and rat chow. All experimental procedures were performed in accordance with regulations and ethical guidelines from the Canadian Council for the Care of Laboratory Animals and received approvals of the institutional animal care and use committee of the Institut National de la Recherche Scientifique—Centre Armand-Frappier Santé Biotechnologie. As previously described ([17], [18]), the thoracic aorta was cleared of surrounding tissue and then excised from the aortic arch to the diaphragm. Conjunctive tissues were next removed from the thoracic aorta and the vessels were divided into five rings of 4 mm. The endothelium of each aortic ring was removed by gently rubbing the vessel intimal surface. Aortic rings were then placed in a 5 ml organ bath filled with oxygenated normal Krebs–Henseleit buffer. Eighty microliters of a 2.5 M potassium chloride solution (40 mM final concentration) was used to evaluate maximal contractile responses of each vessel. […] Cumulative concentration–response curves to synthetic peptides were obtained by increasing the concentration of each peptide in the remaining organ chambers (10^−11–10^−5 M).

[4] = percentage of the activation induced by hUII (10^−6 M), n = 3–5

Emax at 1 µM (hUT [2]; [4])	Emax at 1 µM (hUT [3])	hUII-mediated contraction pEC50, control (no pretreatment) (rat thoracic aorta rings; rat aortic rings, hUII alone, mean ± SEM, n = 19)	Compound	ERK1/2 phosphorylation in absence of receptor (CHO-K1 cells)	EGFR internalization (hUT [1])	EGFR transactivation after YM254890 (Gq inhibitor) (hUT [1])	EC50 (hUT [2])	Emax (hUT [2]; [4])	Emax (hUT [3])	EC50 (hUT [3])	Emax (rat thoracic aorta rings)	shift of hUII / URP concentration–response curve (rat thoracic aorta rings; rat aortic rings, pepducin 10^−6 M pretreatment)
			CCCCCCCCCCCCCCCC(=O)N[C@@H](Cc1c[nH]c2ccccc12)C(=O)N[C@@H](CC(C)C)C(=O)N[C@@H](CO)C(=O)N[C@@H](CCC(N)=O)C(=O)N[C@@H](CCCNC(=N)N)C(=O)N[C@@H](C)C(=O)N[C@@H](CO)C(=O)N[C@@H](Cc1ccccc1)C(=O)N[C@@H](CCCCN)C(=O)N[C@@H](CCCNC(=N)N)C(=O)N[C@@H](C)C(=O)N[C@@H](CCCNC(=N)N)C(=O)N[C@@H](CCCNC(=N)N)C(N)=O [[Trp^1, Leu^2]hUT-Pep3] (Palmitoyl-WLSQRASFKRARR-NH2)	neither hUII nor hUT-derived pepducins were able to induce ERK1/2 phosphorylation	significant internalization of EGFR-GFP	almost completely abolished	4.57 nM	29 ± 4%	185 ± 11%	309 nM	35 ± 6%	
109 ± 5%	106 ± 5%	8.69 ± 0.08	CC(C)[C@H](NC(=O)[C@@H]1CSSC[C@H](NC(=O)[C@H](CC(=O)O)NC(=O)[C@@H]2CCCN2C(=O)[C@@H](NC(=O)[C@@H](N)CCC(=O)O)[C@@H](C)O)C(=O)N[C@@H](Cc2ccccc2)C(=O)N[C@@H](Cc2c[nH]c3ccccc23)C(=O)N[C@@H](CCCCN)C(=O)N[C@@H](Cc2ccc(O)cc2)C(=O)N1)C(=O)O [hUII, urotensin II, reference compound]	neither hUII nor hUT-derived pepducins were able to induce ERK1/2 phosphorylation	resulted in EGFR internalization							
			CCCCCCCCCCCCCCCC(=O)N[C@@H](CCCNC(=N)N)C(=O)N1CCC[C@H]1C(=O)N[C@@H](CC(C)C)C(=O)N[C@@H](CC(=O)O)C(=O)N[C@H](C(=O)N[C@H](C(=O)N[C@@H](CCC(N)=O)C(=O)N[C@@H](CCCNC(=N)N)C(=O)N1CCC[C@H]1C(=O)N[C@@H](CCCCN)C(=O)NCC(=O)N[C@@H](Cc1ccc(O)cc1)C(N)=O)C(C)C)[C@@H](C)O [hUT-Pep2] (Palmitoyl-RPLDTVQRPKGY-NH2)	neither hUII nor hUT-derived pepducins were able to induce ERK1/2 phosphorylation	significant internalization of EGFR-GFP	almost completely abolished	49 nM	~9%	154 ± 10%	468 nM	86 ± 3%	significant rightward shift in the concentration–response curve of hUII but not URP
